Test results from patent US20240358692A1, “TREATMENT OF SCLERODERMA” (Aisa Pharma, Inc., priority 2023, published 2024).

What was measured:
participants with SSc-RP [1] = experiment: Frequency of weekly RP attacks (all attacks; primary endpoint), patient diary; type: in vivo, human; details: for reduction in weekly frequency of attacks: typical Raynaud attacks
Description: Percent change from baseline evaluation for frequency of weekly RP attacks were or will be used as the primary efficacy variable. The sponsor-developed participant-informed diary will be used to record data. Frequency of weekly RP attacks is defined as the total number of RP attacks divided by the number of days with available diary data within the last 7 days of each dosing period then multiplied by 7. Total number of RP attacks during the last 7 days of screening period divided by the number of days with available data then multiplied by 7 will be used as baseline for the analysis of all periods. The variable will be calculated as follows: […]
Percent change from baseline evaluation for frequency of weekly RP attacks was and will be the primary efficacy endpoint. Frequency of weekly RP attacks is defined as the total number of RP attacks divided by the number of days with available diary data within the last 7 days of each dosing period then multiplied by 7. Total number of RP attacks during the last 7 days of screening period divided by the number of days with available data then multiplied by 7 will be used as baseline for the analysis of all periods.

participants with SSc-RP [2] = experiment: SHAQ - Visual Analog Scale - Overall Disease Severity; type: in vivo, human
Description: The standard, validated, patient reported outcome measures tool for SSc patients, the Scleroderma Health Assessment Questionnaire (SHAQ), will be used to assess the participant qualify of life. Details are attached in the Appendix. The participant quality of life will be scored, and a disability index calculated for each questionnaire completed by the patient at Screening and each in-clinic visit. The absolute change in participant quality of life from baseline to the end of each dosing period will be calculated similar to frequency data as before.
The standard, validated, patient reported outcome measures tool for SSc patients, the SHAQ, was collected at the time points specified in the study schedules (FIG. 2 and FIGS. 4A and 4B) to assess the participant's quality of life. The SHAQ included a Raynaud's VAS that will also be reported separately.

[3] = cilnidipine 20 mg daily, n=2, ITT Part A, excluding outliers, last 7 days of dosing
[4] = cilnidipine 20 mg daily, n=2, ITT Part A, last 7 days of dosing
[5] = Any Cilnidipine (N = 17), Day 12, PP Population, Part A
[6] = Pooled Cilnidipine 10 mg and Cilnidipine 10 mg + Tadalafil 5 mg, PP, Part A
[7] = Pooled Cilnidipine 20 mg and Cilnidipine 20 mg + Tadalafil 5 mg, PP, Part A
[8] = Pooled Cilnidipine (N = 7), Day 12, Modified ITT Population - Part A

COCCOC(=O)C1=C(C)NC(C)=C(C(=O)OC/C=C/c2ccccc2)C1c1cccc([N+](=O)[O-])c1 (centres unmarked) [Cilnidipine]
Weekly RP Attacks (All Attacks), Median (participants with SSc-RP [1]; cilnidipine 10 mg daily, n=1, ITT Part A, last 7 days of dosing): 23.00
Weekly RP Attacks (All Attacks) Change from Baseline, Mean (participants with SSc-RP [1]; [3]): −6.67
Weekly RP Attacks (All Attacks) Change from Baseline, Median (participants with SSc-RP [1]; [3]): −6.67
Weekly RP Attacks (All Attacks) Percent Change from Baseline, Mean (participants with SSc-RP [1]; [3]): −45.71%
Weekly RP Attacks (All Attacks) Percent Change from Baseline, Median (participants with SSc-RP [1]; [3]): −45.71%
Weekly RP Attacks (All Attacks), Mean (participants with SSc-RP [1]; [3]): 8.00
Weekly RP Attacks (All Attacks), Median (participants with SSc-RP [1]; [3]): 8.00
Weekly RP Attacks (All Attacks), Mean (participants with SSc-RP [1]; [4]): 8.00
Weekly RP Attacks (All Attacks), Median (participants with SSc-RP [1]; [4]): 8.00
reduction in weekly frequency of attacks (participants with SSc-RP [1]; cilnidipine 10 mg (dose response, n=3)): 28%
reduction in weekly frequency of attacks (participants with SSc-RP [1]; cilnidipine 20 mg (dose response, n=3)): 46%
SHAQ Visual Analogue Scale - Overall Disease Severity, Change from Baseline, Mean (SD) (participants with SSc-RP [2]; [5]): −0.991 (1.0921)
SHAQ Visual Analogue Scale - Overall Disease Severity, Change from Baseline, Median (participants with SSc-RP [2]; [5]): −1.100
SHAQ Visual Analogue Scale - Overall Disease Severity, In-Clinic Visit (Day 12), Mean (SD) (participants with SSc-RP [2]; [5]): 2.203 (2.1532)
SHAQ Visual Analogue Scale - Overall Disease Severity, In-Clinic Visit (Day 12), Median (participants with SSc-RP [2]; [5]): 1.400
SHAQ Visual Analogue Scale - Overall Disease Severity, Percent Change from Baseline, Mean (SD) (participants with SSc-RP [2]; [5]): −36.33 (43.497) %
SHAQ Visual Analogue Scale - Overall Disease Severity, Percent Change from Baseline, Median (participants with SSc-RP [2]; [5]): −42.89%
% change overall SSc Disease Severity (participants with SSc-RP [2]; Cilnidipine 20 mg (n = 3), SHAQ, mITT Part A): −63% (i.e.,
SHAQ Overall Scleroderma Disease Severity, mean % change (participants with SSc-RP [2]; Cilnidipine 20 mg (n = 3), minus = improvement, Table A*): −63%
SHAQ VAS Overall Disease Severity, Change from Baseline, Max (participants with SSc-RP [2]; [6]): 1.90
SHAQ VAS Overall Disease Severity, Change from Baseline, Mean (SD) (participants with SSc-RP [2]; [6]): −0.606 (1.1663)
SHAQ VAS Overall Disease Severity, Change from Baseline, Min (participants with SSc-RP [2]; [6]): −1.90
SHAQ VAS Overall Disease Severity, Change from Baseline, Q1 (participants with SSc-RP [2]; [6]): −1.500
SHAQ VAS Overall Disease Severity, Change from Baseline, Q3 (participants with SSc-RP [2]; [6]): −0.300
SHAQ VAS Overall Disease Severity, Day 12, Max (participants with SSc-RP [2]; [6]): 6.00
SHAQ VAS Overall Disease Severity, Day 12, Min (participants with SSc-RP [2]; [6]): 0.00
SHAQ VAS Overall Disease Severity, Day 12, Q1 (participants with SSc-RP [2]; [6]): 0.800
SHAQ VAS Overall Disease Severity, Day 12, Q3 (participants with SSc-RP [2]; [6]): 3.800
SHAQ VAS Overall Disease Severity, Percent Change from Baseline, Max (participants with SSc-RP [2]; [6]): 100.0
SHAQ VAS Overall Disease Severity, Percent Change from Baseline, Mean (SD) (participants with SSc-RP [2]; [6]): −24.68 (57.343)
SHAQ VAS Overall Disease Severity, Percent Change from Baseline, Min (participants with SSc-RP [2]; [6]): −100.0
SHAQ VAS Overall Disease Severity, Percent Change from Baseline, Q1 (participants with SSc-RP [2]; [6]): −51.01
SHAQ VAS Overall Disease Severity, Percent Change from Baseline, Q3 (participants with SSc-RP [2]; [6]): −16.76
SHAQ Visual Analogue Scale - Overall Disease Severity, Change from Baseline, Median (participants with SSc-RP [2]; Pooled Cilnidipine 20 mg and Cilnidipine 20 mg + Tadalafil 5 mg (N = 7), Day 12, Modified ITT Population - Part A): −1.500
SHAQ Visual Analogue Scale - Overall Disease Severity, In-Clinic Visit (Day 12), Median (participants with SSc-RP [2]; Pooled Cilnidipine 20 mg and Cilnidipine 20 mg + Tadalafil 5 mg (N = 7), Modified ITT Population - Part A): 1.200
SHAQ VAS Overall Disease Severity, Change from Baseline, Max (participants with SSc-RP [2]; [7]): −0.40
SHAQ VAS Overall Disease Severity, Change from Baseline, Min (participants with SSc-RP [2]; [7]): −3.10
SHAQ VAS Overall Disease Severity, Change from Baseline, Q1 (participants with SSc-RP [2]; [7]): −1.750
SHAQ VAS Overall Disease Severity, Change from Baseline, Q3 (participants with SSc-RP [2]; [7]): −0.650
SHAQ VAS Overall Disease Severity, Day 12, Max (participants with SSc-RP [2]; [7]): 7.30
SHAQ VAS Overall Disease Severity, Day 12, Median (participants with SSc-RP [2]; [7]): 1.300
SHAQ VAS Overall Disease Severity, Day 12, Min (participants with SSc-RP [2]; [7]): 0.50
SHAQ VAS Overall Disease Severity, Day 12, Q1 (participants with SSc-RP [2]; [7]): 0.800
SHAQ VAS Overall Disease Severity, Day 12, Q3 (participants with SSc-RP [2]; [7]): 1.750
SHAQ VAS Overall Disease Severity, Percent Change from Baseline, Max (participants with SSc-RP [2]; [7]): −9.9
SHAQ VAS Overall Disease Severity, Percent Change from Baseline, Min (participants with SSc-RP [2]; [7]): −76.2
SHAQ VAS Overall Disease Severity, Percent Change from Baseline, Q1 (participants with SSc-RP [2]; [7]): −64.44
SHAQ VAS Overall Disease Severity, Percent Change from Baseline, Q3 (participants with SSc-RP [2]; [7]): −36.22
SHAQ Visual Analogue Scale - Overall Disease Severity, Change from Baseline, Mean (participants with SSc-RP [2]; [8]): −1.214
SHAQ Visual Analogue Scale - Overall Disease Severity, Percent Change from Baseline, Mean (participants with SSc-RP [2]; [8]): −59.80%
SHAQ Visual Analogue Scale - Overall Disease Severity, Percent Change from Baseline, Median (participants with SSc-RP [2]; [8]): −55.86%
SHAQ Visual Analogue Scale - Overall Disease Severity, In-Clinic Visit (Day 12), Mean (participants with SSc-RP [2]; Pooled Cilnidipine (N = 7), Modified ITT Population - Part A): 1.486
SHAQ Visual Analogue Scale - Overall Disease Severity, In-Clinic Visit (Day 12), Mean (SD) (participants with SSc-RP [2]; Pooled Cilnidipine (N = 8), Day 12, PP Population, Part A): 1.475 (1.6430)
